{"source": "patent US4992420A", "about": "“Dental anti-plaque and anti-caries agent” (priority 1987, dated 1991)", "key": {"[1]": {"test_system": "A. viscosus OMZ 105", "assay": "microbe, parasite or virus in culture", "settings": "Actinomyces viscosus, OMZ105, 4 h, read-out: Inhibition (%) of adhesion to plastic tubes, A. viscosus OMZ 105"}, "[2]": {"test_system": "S. sanguis OMZ 9", "assay": "microbe, parasite or virus in culture", "settings": "Streptococcus, OMZ9, 4 h, read-out: Inhibition (%) of adhesion to plastic tubes, S. sanguis OMZ 9"}, "[3]": {"test_system": "S. mutans OMZ 176", "assay": "Inhibition of bacterial adhesion to plastic (polypropylene) tubes, S. mutans", "settings": "for inhibition at 1000 µg/mL: Streptococcus mutans, OMZ176, 4 h, read-out: Inhibition (%) of adhesion to plastic tubes, S. mutans OMZ 176; for Inhibition (%) of adhesion to plastic tubes, S. mutans OMZ 176: 1 mg/ml, 4 h"}, "[4]": {"test_system": "S. sanguis OMZ 9", "settings": "for Inhibition (%) of adhesion to plastic tubes, S. sanguis OMZ 9: 1 mg/ml, 4 h; for Inhibitory effect on adhesion to plastic tubes (in words), S. sanguis OMZ 9: preliminary tests"}, "[5]": {"test_system": "A. viscosus OMZ 105", "settings": "for Inhibition (%) of adhesion to plastic tubes, A. viscosus OMZ 105: 1 mg/ml, 4 h; for Inhibitory effect on adhesion to plastic tubes (in words), A. viscosus OMZ 105: preliminary tests"}, "[6]": {"test_system": "A. viscosus OMZ 206", "assay": "Inhibition of bacterial adhesion to plastic (polypropylene) tubes, A. viscosus OMZ 206", "settings": "Actinomyces viscosus, OMZ206, 4 h, read-out: Inhibition (%) of adhesion to plastic tubes, A. viscosus OMZ 206"}, "[7]": {"test_system": "A. viscosus OMZ 105"}, "[8]": {"test_system": "A. naeslundii ATCC 12104", "settings": "desialylated human erythrocytes (A+); no control of bacterial growth phase; none = no inhibition up to 20 mg/ml"}}, "data": [{"compound": "O=C[C@H](O)[C@@H](O)[C@@H](O)[C@H](O)CO", "note": "[Galactose]", "values": [{"measurement": "inhibition at 1000 µg/mL", "setting": "[1]", "value": 12, "unit": "%"}, {"measurement": "inhibition at 1000 µg/mL", "setting": "[2]", "value": 12, "unit": "%"}, {"measurement": "inhibition at 1000 µg/mL", "setting": "[3]", "value": 4, "unit": "%"}]}, {"compound": "Polylysine", "values": [{"measurement": "Inhibition (%) of adhesion to plastic tubes, S. sanguis OMZ 9", "setting": "[4]", "value": 12, "unit": "%"}, {"measurement": "Inhibition (%) of adhesion to plastic tubes, A. viscosus OMZ 105", "setting": "[5]", "value": 46, "unit": "%"}, {"measurement": "Inhibition (%) of adhesion to plastic tubes, S. mutans OMZ 176", "setting": "[3]", "value": 30, "unit": "%"}]}, {"compound": "OC[C@H]1O[C@@H](O[C@H]2[C@H](O)[C@@H](O)C(O)O[C@@H]2CO)[C@H](O)[C@@H](O)[C@H]1O", "note": "(stereo partly shown) [Lactose]", "values": [{"measurement": "inhibition at 1000 µg/mL", "setting": "[6]", "value": 15, "unit": "%"}, {"measurement": "Minimum concentration resulting in complete inhibition of hemagglutination, expressed in galactoside equivalents/ml", "setting": "[7]; A. viscosus OMZ harvested in the exponential phase, desialylated human erythrocytes (A+)", "value": "> 10", "unit": "mg/mL"}, {"measurement": "Minimum concentration resulting in complete inhibition of hemagglutination, expressed in dry weight/ml", "setting": "[7]; A. viscosus OMZ harvested in the exponential phase, desialylated human erythrocytes (A+), none = no inhibition up to 20 mg/ml", "value": "none"}, {"measurement": "Minimum concentration resulting in complete inhibition of hemagglutination, A. viscosus OMZ 105", "setting": "[7]; desialylated human erythrocytes (A+), no control of bacterial growth phase, none = no inhibition up to 20 mg/ml", "value": "none"}, {"measurement": "Inhibition of hemagglutinations governed by type 2 pili (in words)", "setting": "[7]; summary of Tables I and II", "value": "completely ineffective"}, {"measurement": "Minimum concentration resulting in complete inhibition of hemagglutination, A. naeslundii ATCC 12104", "setting": "[8]", "value": "none"}, {"measurement": "inhibition at 1000 µg/mL", "setting": "[1]", "value": 14, "unit": "%"}, {"measurement": "inhibition at 1000 µg/mL", "setting": "[2]", "value": 12, "unit": "%"}, {"measurement": "inhibition at 1000 µg/mL", "setting": "[3]", "value": 4, "unit": "%"}]}, {"compound": "Polyglutamic acid", "values": [{"measurement": "Inhibition (%) of adhesion to plastic tubes, S. sanguis OMZ 9", "setting": "[4]", "value": 6, "unit": "%"}, {"measurement": "Inhibition (%) of adhesion to plastic tubes, A. viscosus OMZ 105", "setting": "[5]", "value": 22, "unit": "%"}, {"measurement": "Inhibition (%) of adhesion to plastic tubes, S. mutans OMZ 176", "setting": "[3]", "value": 20, "unit": "%"}]}, {"compound": "COC1OC(CO)C(O)C(O)C1O", "note": "(stereo not drawn) [Methyl α mannoside]", "values": [{"measurement": "Inhibition (%) of adhesion to plastic tubes, S. sanguis OMZ 9", "setting": "[4]", "value": 11, "unit": "%"}, {"measurement": "Inhibition (%) of adhesion to plastic tubes, A. viscosus OMZ 105", "setting": "[5]", "value": 10, "unit": "%"}, {"measurement": "Inhibition (%) of adhesion to plastic tubes, S. mutans OMZ 176", "setting": "[3]", "value": 3, "unit": "%"}]}, {"compound": "NCC(=O)O", "note": "[glycine]", "values": [{"measurement": "Inhibitory effect on adhesion to plastic tubes (in words), S. sanguis OMZ 9", "setting": "[4]", "value": "nonactivity"}, {"measurement": "Inhibitory effect on adhesion to plastic tubes (in words), A. viscosus OMZ 105", "setting": "[5]", "value": "nonactivity"}]}, {"compound": "O=C[C@H](O)[C@@H](O)[C@H](O)[C@H](O)CO", "note": "[glucose]", "values": [{"measurement": "Inhibitory effect on adhesion to plastic tubes (in words), S. sanguis OMZ 9", "setting": "[4]", "value": "nonactivity"}, {"measurement": "Inhibitory effect on adhesion to plastic tubes (in words), A. viscosus OMZ 105", "setting": "[5]", "value": "nonactivity"}]}]}
